≈ marks a conversion by molar mass, not a printed value.
How the values were obtained:
[1] = test system: adult patients with moderate-to-severe CHE; experiment: DELTA 1 and DELTA 2 together (pooled analyses and statements made for both trials); type: in vivo, human
Procedure: In a pooled analysis of both trials, changes in EQ-5D scores from baseline to week 16 were assessed in all patients and in a post-hoc analysis of patients achieving clinical responses (defined as Hand Eczema Area and Severity Index (HECSI)-50, -75, and -90, Investigator's Global Assessment for CHE treatment success [IGA-CHE TS; clear or almost clear skin with a ≥2-step improvement from baseline] and ≥4-point improvements in Hand Eczema Symptom Diary (HESD) itch and pain scores.
DELTA 1 and DELTA 2 were phase 3 trials of identical design. […] Data were pooled from both trials and changes in DLQI scores were assessed from baseline to week 16 in all patients and in a post-hoc analysis of patients achieving clinical responses, defined as Hand Eczema Area and Severity Index (HECSI)-50, -75, and -90, Investigator's Global Assessment for CHE treatment success (IGA-CHE TS; a score of 0/1 with a ≥2-step improvement from baseline), and ≥4-point improvements in Hand Eczema Symptom Diary (HESD) itch and pain scores.
The Hand Eczema Symptom eDiary (HESD) captured patient-reported severity of itch and pain over the past 24 hours on an 11-point numeric rating scale (0=no itch/pain to 10=severe itch/pain). Changes in itch and pain from baseline were assessed daily during Week (W)1 and weekly from W1-16.

[2] = Systemic exposure in DELTA 2: plasma concentrations of delgocitinib after cream application (LC/MS); type: in vivo, human; details: for plasma concentration of delgocitinib (geometric mean): 2-6 hours after application of cream 20 mg/g twice daily
Description: (§1) Data are reported as geometric means.

[3] = test system: IL-4 release in whole-blood; experiment: in vitro IL-4 release assay in whole-blood of healthy volunteers; type: cell-based; details: Homo sapiens; whole-blood of healthy volunteers (n=4)
Description: as §1

[4] = Phase 1 trial, single oral doses of delgocitinib in healthy volunteers; type: in vivo; details: human, plasma, single oral dose 1.5 mg, read-out: peak systemic exposure (geometric mean Cmax)
Description: as §1

[5] = Plasma protein binding; type: in vitro ADME
[6] = Half-life following repeated topical administration of delgocitinib cream; type: in vivo; details: human, plasma, 20 mg/g

C[C@H]1CN(C(=O)CC#N)[C@]12CCN(c1ncnc3[nH]ccc13)C2 [delgocitinib, Delgocitinib]
rates of all AEs, AEs related to study drug and AEs leading to discontinuation of study drug, versus cream vehicle ([1]; baseline to trial completion): numerically higher with cream vehicle compared to delgocitinib
onset of itch and pain reduction ([1]; pooled): Early onset of itch and pain reduction was observed within W1
decrease of detectable absorption by week 16 ([2]; DELTA 2): 48%
plasma concentration of delgocitinib (geometric mean) ([2]; DELTA 2, Week 1): 0.21 ng/mL
plasma concentration of delgocitinib (geometric mean) ([2]; DELTA 2, Week 4): 0.20 ng/mL
plasma concentration of delgocitinib (geometric mean) ([2]; DELTA 2, Week 16): 0.12 ng/mL
mean plasma concentration in the remaining subjects with detectable absorption ([2]; DELTA 2, week 16): 0.11 ng/mL
steady state reached ([2]; given as Delta 2): ≤ 8 days
AUC(0-t) ([2]; human, plasma, topical, 20 mg/g, given as Delta 2, day 8, read-out: area under the concentration-curve from time 0 to 12 hours (AUC0-12), geometric mean): 3.7 ng·h/mL
Cmax ([2]; human, plasma, topical, 20 mg/g, given as Delta 2, day 8, read-out: geometric mean maximum plasma concentration (Cmax)): 0.46 ng/mL
IC50 [3]: 0.0172 µg/mL (≈ 0.0554 µM)
Cmax [4]: 7.2 ng/mL
fraction unbound [5]: 0.71 to 0.78
half-life [6]: 20.3 h
